Experimental data from patent US11026936B2, “Piperidinyl-propanone derivatives” (Merck Patent GmbH, priority 2016, dated 2021).

Assays:
PDHK2 = PDHK2 (Homo sapiens (Human), UniProt Q15119); test: Biochemical activity testing of PDHK2: PDC inactivation assay; conditions: human rec PDHK2, PDC from porcine heart, ATP 5 μM; read-out: IC50 PDHK2 (enzyme assay)
From the text: Biochemical Activity Testing of PDHK2: PDC Inactivation Assay
The biochemical activity assay for PDHK2 is based on the inactivation of PDC through phosphorylation by PDHK2. The assay is run in two steps: the enzymatic PDHK2 reaction in which isolated PDC is phosphorylated by PDHK2 with ATP as co-substrate and the PDC activity assay in which pyruvate and NAD are converted to acetyl-CoA and NADH. The PDC activity correlates to the increase in NADH and thereby is detectable directly via the increasing fluorescence signal (Exc 340 nm, Em 450 nm). Inhibition of PDHK2 results in a lower phosphorylation status and thereby a less decrease in activity of PDC and a stronger increase in NADH fluorescence signal.
The PDC inactivation assay is performed in Greiner 384-well microtiter plates and is used for high throughput screen. 4 μl of PDHK2 (human, rec, Carna Bioscience, 10 ng/μl-137 nM final concentration) and PDC (isolated from porcine heart, Sigma-Aldrich, 20 mU/ml final concentration) are incubated in the absence or presence of the test compound (10 dilution concentrations) for 30 min at room temperature in kinase buffer (15 mM potassium phosphate buffer, pH 7.0, 60 mM KCl, 1.5 mM DTT, 2.5 mM MgCl2, 0.0125% (w/v) BSA, 0.125% Pluronic F-68). The kinase reaction is started by the addition of 4 μl ATP substrate solution (fc 5 μM in kinase buffer). After 30 min incubation at 37° C. 40 μl of PDC reaction solution (100 mM Tris/HCl, pH 7.8, 0.5 mM EDTA, 1 mM MgCl2, 50 mM NaF, 0.25 mM Coenzyme A, 5 mM pyruvate, 1 mM NAD, 5 mM DTT, 1 mM thiamine pyrophosphate) is added. The first fluorescence measurement is performed on a Perkin Elmer Envision (Exc 340 nm, Em 450 nm). The reaction is incubated for 45 min at room temperature. Afterwards a second fluorescence measurement is performed and the PDC activity is calculated by the difference between both measurements. As full value for the PDHK2 assay the inhibitor-free PDHK2 reaction is used. The pharmacological zero value used is DCA (Sigma-Aldrich) in a final concentration of 3 mM. The inhibitory values (IC50) were determined using either the program Symyx Assay Explorer® or Condosseo® from GeneData.

human PDHK2 (12-407) = human PDHK2 (12-407) (Homo sapiens (Human), UniProt Q15119); test: Isothermal titration calorimetry (ITC) binding; conditions: 30° C., pH 7.5
Procedure: Isothermal Titration Calorimetry
ITC measurements were performed with a VP-ITC micro calorimeter (Microcal, LLC/GE Healthcare Bio-Sciences AB, Uppsala, Sweden). In general titrations were performed by titrating the protein (50 μM) to the test compound (5 μM) in 12 μl injections. All binding experiments were carried out at 30° C. In general the test compounds were diluted form DMSO stock solutions into the measurement buffer with a maximum final concentration of 1% DMSO. The measurement buffer was 20 mM HEPES, 135 mM KCl, 1 mM TCEP, 2 mM MgCl2, 15 mM NaH2PO4, pH 7.5. The human PDHK2 (12-407) was produced in E. coli as his-tagged protein and purified by affinity chromatography. The tag was removed by side specific proteolysis. Before titration the protein buffer was changed to the measurement buffer containing the same DMSO concentration as the test compound dilution. ITC data analysis was performed using Origin 7 calorimetry software from the same supplier. For most measurements a binding model of one binding site was assumed. According to the applied mathematical model it is possible to calculate the binding constant (KA), the observed binding enthalpy (ΔH^obs) as well as the stoichiometry (N) of the formed complex. Preceding analysis the raw data was corrected for the heats of dilution by extrapolating from the saturation value from the end of titration. In order to allow for direct comparison between the respective experimental series and protein preparations the protein concentration was corrected by referencing titrations to a well behaved standard inhibitor. The apparent stoichiometry values defined the fraction of binding competent protein and compensated for relative errors in protein concentration measurements. This corrected protein concentration was used to set up ITC experiment series with test compounds. Any deviations from ideal 1:1 stoichiometry observed here were attributed to errors in compound concentration. This nominal compound concentration was corrected as well to achieve 1:1 stoichiometry in the fit.

[1] = test system: PDH-E1alpha (pSer300) in HEK293T cells; test: Cellular immunofluorescence assay, PDH-E1alpha (pSer300); format: cell-based; conditions: Homo sapiens, HEK-293T, 5 hours incubation, read-out: IC50 (cell data)
Procedure: Cellular Assay for Determination of Compound Activities
Compound activities were determined in a cellular immunofluorescence assay. Human HEK293T cells were seeded into black 384-well plates with clear bottom and grown overnight.
Next day, test compounds were added to the wells and the plates incubated for 5 hours. Following this, cells were fixed with formaldehyde, permeabilised and blocked. The primary antibody, Anti-PDH-E1alpha (pSer300), AP1064 (Merck Millipore) was added and incubated overnight in the plate wells. Next, cells were washed and the seconday antibody, Alexa Fluor 488, goat anti-rabbit ab (A-11008, Invitrogen) was added together with Hoechst 33258 (H3569, Invitrogen) and incubated for 1 hour in the plate wells. Finally, cells were washed and the plates were measured on the laser scanning cytometer acumen hci (TTpLabtech).
The raw data were normalized against a pharmacological inhibitor control and dose response curves were generated by plotting the percent effect values using the software package Genedata screener (Genedata).

| Structure (SMILES) | IC50 (PDHK2) [nM] | Kd (human PDHK2 (12-407)) [nM] | IC50 [1] [nM] |
| --- | --- | --- | --- |
| C[C@@H]1CN(C(=O)[C@@](C)(O)C(F)(F)F)CC[C@@H]1C1(c2nnc(-c3ccccc3)o2)CC1 (stereo in doubt) [Compound A16, (R)-3,3,3-Trifluoro-2-hydroxy-2-methyl-1-{(R)-3-methyl-4-[1-(5-phenyl-[1,3,4]oxadiazol-2-yl)-cyclopropyl]-piperidin-1-yl}-propan-1-one] | 150 | 4.9 | 35 |
| Cc1nnc(C2(C3CCN(C(=O)[C@@](C)(O)C(F)(F)F)CC3)CC2)o1 [Compound A7, (R)-3,3,3-Trifluoro-2-hydroxy-2-methyl-1-{4-[1-(5-methyl-[1,3,4]oxadiazol-2-yl)-cyclopropyl]-piperidin-1-yl}-propan-1-one] | 3500 | 850 | > 30000 |
| COc1ccc(-c2nnc(C3([C@H]4CCN(C(=O)[C@@](C)(O)C(F)(F)F)C[C@H]4C)CC3)[nH]2)cn1 [Compound A40, (R)-3,3,3-Trifluoro-2-hydroxy-1-((3S,4S)-4-{1-[5-(6-methoxy-pyridin-3-yl)-4H-[1,2,4]triazol-3-yl]-cyclopropyl}-3-methyl-piperidin-1-yl)-2-methyl-propan-1-one] | 91 | 6.5 | 25 |
| CC(C)(C)c1nnc(C2(C3CCN(C(=O)[C@@](C)(O)C(F)(F)F)CC3)CC2)o1 [Compound A8, (R)-1-{4-[1-(5-tert-Butyl-[1,3,4]oxadiazol-2-yl)-cyclopropyl]-piperidin-1-yl}-3,3,3-trifluoro-2-hydroxy-2-methyl-propan-1-one] | 2400 | 650 | 8700 |
| COc1ccc(-c2nnc(C3([C@H]4CCN(C(=O)[C@@](C)(O)C(F)(F)F)C[C@H]4C)CC3)o2)cn1 [Compound A43, (R)-3,3,3-Trifluoro-2-hydroxy-1-((3S,4S)-4-{1-[5-(6-methoxy-pyridin-3-yl)-[1,3,4]oxadiazol-2-yl]-cyclopropyl}-3-methyl-piperidin-1-yl)-2-methyl-propan-1-one] | 100 | 3.8 | 16 |
| C[C@@H]1CN(C(=O)[C@@](C)(O)C(F)(F)F)CC[C@@H]1C1(c2nnc(-c3ccc(Cl)cc3)o2)CC1 [Compound A37, (R)-1-((3S,4S)-4-{1-[5-(4-Chloro-phenyl)-[1,3,4]oxadiazol-2-yl]-cyclopropyl}-3-methyl-piperidin-1-yl)-3,3,3-trifluoro-2-hydroxy-2-methyl-propan-1-one] | 130 | 2.4 | 25 |
| C[C@@](O)(C(=O)N1CCC(C2(c3nnc(-c4ccccc4)[nH]3)CC2)CC1)C(F)(F)F [Compound A1, (R)-3,3,3-Trifluoro-2-hydroxy-2-methyl-1-{4-[1-(5-phenyl-1H-[1,2,4]triazol-3-yl)-cyclopropyl]-piperidin-1-yl}-propan-1-one] | 590 | 110 | 3000 |
| CC(C)(c1nnc(C2CCCCC2)o1)C1CCN(C(=O)[C@@](C)(O)C(F)(F)F)CC1 [Compound A10, (R)-1-{4-[1-(5-Cyclohexyl-[1,3,4]oxadiazol-2-yl)-1-methyl-ethyl]-piperidin-1-yl}-3,3,3-trifluoro-2-hydroxy-2-methyl-propan-1-one] | 400 | 120 | 2000 |
| C[C@@](O)(C(=O)N1CCC(C2(c3nnc(-c4ccc(F)cc4)o3)CC2)CC1)C(F)(F)F [Compound A6, (R)-3,3,3-Trifluoro-1-{4-{1-[5-(4-fluoro-phenyl)-[1,3,4]oxadiazol-2-yl]-cyclopropyl}-piperidin-1-yl}-2-hydroxy-2-methyl-propan-1-one] | 500 | 270 | 2000 |
| C[C@@](O)(C(=O)N1CCC(C2(c3nnc(-c4ccccc4)o3)CC2)CC1)C(F)(F)F [Compound A5, (R)-3,3,3-Trifluoro-2-hydroxy-2-methyl-1-{4-[1-(5-phenyl-[1,3,4]oxadiazol-2-yl)-cyclopropyl]-piperidin-1-yl}-propan-1-one] | 440 | 200 | 1500 |

Further lines, with some results ahead:

| IC50 (PDHK2) [nM] | Kd (human PDHK2 (12-407)) [nM] | Structure (SMILES) | IC50 [1] [nM] |
| --- | --- | --- | --- |
| 180 | 2.8 | C[C@@H]1CN(C(=O)[C@@](C)(O)C(F)(F)F)CC[C@@H]1C1(c2nnc(-c3ccc(Cl)cc3)[nH]2)CC1 [Compound A34, (R)-1-((3S,4S)-4-{1-[5-(4-Chloro-phenyl)-4H-[1,2,4]triazol-3-yl]-cyclopropyl}-3-methyl-piperidin-1-yl)-3,3,3-trifluoro-2-hydroxy-2-methyl-propan-1-one] | 19 |
| 100 | 4.1 | Cc1ccc(-c2nnc(C3([C@H]4CCN(C(=O)[C@@](C)(O)C(F)(F)F)C[C@H]4C)CC3)o2)cc1 [Compound A25, (R)-3,3,3-Trifluoro-2-hydroxy-2-methyl-1-{(3S,4S)-3-methyl-4-[1-(5-p-tolyl-[1,3,4]oxadiazol-2-yl)-cyclopropyl]-piperidin-1-yl}-propan-1-one] | 30 |
| 130 | < 2 | C[C@@H]1CN(C(=O)[C@@](C)(O)C(F)(F)F)CC[C@@H]1C1(c2nnc(-c3ccccc3)[nH]2)CC1 [Compound A14, (R)-3,3,3-Trifluoro-2-hydroxy-2-methyl-1-{(3S,4S)-3-methyl-4-[1-(5-phenyl-4H-[1,2,4]triazol-3-yl)-cyclopropyl]-piperidin-1-yl}-propan-1-one] | 19 |
| 90 | 2.6 | Cc1ccc(-c2nnc(C3([C@H]4CCN(C(=O)[C@@](C)(O)C(F)(F)F)C[C@H]4C)CC3)[nH]2)cc1 [Compound A22, (R)-3,3,3-Trifluoro-2-hydroxy-2-methyl-1-{(3S,4S)-3-methyl-4-[1-(5-p-tolyl-4H-[1,2,4]triazol-3-yl)-cyclopropyl]-piperidin-1-yl}-propan-1-one] | 16 |
| 88 | 2.5 | COc1ccc(-c2nnc(C3([C@H]4CCN(C(=O)[C@@](C)(O)C(F)(F)F)C[C@H]4C)CC3)[nH]2)cc1 [Compound A28, (R)-3,3,3-Trifluoro-2-hydroxy-1-((3S,4S)-4-{1-[5-(4-methoxy-phenyl)-4H-[1,2,4]triazol-3-yl]-cyclopropyl}-3-methyl-piperidin-1-yl)-2-methyl-propan-1-one] | 12 |
| 370 | 8.3 | CC1CN(C(=O)[C@@](C)(O)C(F)(F)F)CCC1C1(c2nnc(-c3ccccc3)[nH]2)CC1 (stereo partly drawn) [Compound A11, (R)-3,3,3-Trifluoro-2-hydroxy-2-methyl-1-{3-methyl-4-[1-(5-phenyl-1H-[1,2,4]triazol-3-yl)-cyclopropyl]-piperidin-1-yl}-propan-1-one] | 120 |
